Source: PubChem BioAssay (NCI)
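Results reflect a 48-hour exposure of cells in 96-well plates to compound at five concentrations. TGI denotes the concentration required for complete inhibition of growth.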

Columns and labels:
Test in all cases: NCI tumour cell line growth inhibition, 48 h
[1] = system: UO-31 renal
[2] = system: SK-OV-3 ovarian
[3] = system: MDA-N
[4] = system: RXF 393 renal
[5] = system: EKVX NSCLC
[6] = system: K-562 leukemia
[7] = system: CAKI-1 renal
[8] = system: BT-549 breast
[9] = system: M14 melanoma
[10] = system: HT29 colon
[11] = system: 786-0 renal
[12] = system: PC-3 prostate
[13] = system: OVCAR-3 ovarian
[14] = system: MOLT-4 leukemia
[15] = system: NCI-H460 lung
[16] = system: HCC-2998 colon
[17] = system: SF-295 CNS
[18] = system: HS 578T breast
[19] = system: SW-620 colon
[20] = system: T-47D breast
[21] = system: A498 renal
[22] = system: U251 CNS
[23] = system: OVCAR-5 ovarian
[24] = system: SK-MEL-2 melanoma
[25] = system: SF-268 CNS
[26] = system: TK-10 renal
[27] = system: HOP-92 NSCLC
[28] = system: MDA-MB-435
[29] = system: LOX IMVI melanoma
[30] = system: A549 NSCLC
[31] = system: HOP-62 NSCLC
[32] = system: RPMI-8226 leukemia
[33] = system: OVCAR-4 ovarian
[34] = system: SNB-19 CNS
[35] = system: HCT-15 colon
[36] = system: HL-60(TB) leukemia
[37] = system: DU-145 prostate
[38] = system: OVCAR-8 ovarian
[39] = system: HCT-116 colon
[40] = system: NCI-H226 lung
[41] = system: CCRF-CEM leukemia
[42] = system: UACC-62 melanoma
[43] = system: NCI/ADR-RES ovarian
[44] = system: MCF7 breast
[45] = system: SF-539 CNS
[46] = system: SK-MEL-5 melanoma
[47] = system: KM12 colon
[48] = system: ACHN renal
[49] = system: MALME-3M melanoma
[50] = system: MDA-MB-231 breast
[51] = system: NCI-H23 lung
[52] = system: SK-MEL-28 melanoma
[53] = system: SNB-75 CNS
[54] = system: UACC-257 melanoma
[55] = system: NCI-H522 lung

With `N#CCCN(CCCN(C(=O)N(c1ccccc1)c1ccccc1)c1ccccc1)C(=O)Nc1ccccc1` the TGI [1] was > 100 µM, the TGI [2] was > 100 µM and the TGI [3] was > 100 µM. For the same compound, the TGI [4] was > 100 µM, the TGI [5] was > 100 µM and the TGI [6] was > 100 µM. For the same compound, the TGI [7] was > 100 µM, the TGI [8] was > 100 µM and the TGI [9] was > 100 µM. The TGI [10] was > 100 µM, the TGI [11] was > 100 µM and the TGI [12] was > 100 µM. The TGI [13] was > 100 µM, the TGI [14] was > 100 µM and the TGI [15] was > 100 µM. The TGI [16] was > 100 µM, the TGI [17] was > 100 µM and the TGI [18] was > 100 µM. For the same compound, the TGI [19] was > 100 µM, the TGI [20] was > 100 µM and the TGI [21] was > 100 µM. The TGI [22] was > 100 µM, the TGI [23] was > 100 µM and the TGI [24] was > 100 µM. For the same compound, the TGI [25] was > 100 µM, the TGI [26] was > 100 µM and the TGI [27] was > 100 µM. For the same compound, the TGI [28] was > 100 µM, the TGI [29] was > 100 µM and the TGI [30] was > 100 µM. For the same compound, the TGI [31] was > 100 µM, the TGI [32] was > 100 µM and the TGI [33] was > 100 µM. The TGI [34] was > 100 µM, the TGI [35] was > 100 µM and the TGI [36] was 45.1 µM. The TGI [37] was > 100 µM, the TGI [38] was > 100 µM and the TGI [39] was > 100 µM. The TGI [40] was > 100 µM, the TGI [41] was 83.6 µM and the TGI [42] was > 100 µM. For the same compound, the TGI [43] was > 100 µM, the TGI [44] was > 100 µM and the TGI [45] was > 100 µM. The TGI [46] was > 100 µM, the TGI [47] was > 100 µM and the TGI [48] was > 100 µM. For the same compound, the TGI [49] was > 100 µM, the TGI [50] was > 100 µM and the TGI [51] was > 100 µM. For the same compound, the TGI [52] was > 100 µM, the TGI [53] was > 100 µM and the TGI [54] was > 100 µM. For the same compound, the TGI [55] was > 100 µM.
